In the supplement of paper PMC4862054:

Experiments:
Conditions in all cases: incubation time: 72 h
DU-4475 [1] = test: normalised response (% of control), CellTiter-Glo; higher = more viable cells (100 = DMSO, 0 = benzethonium chloride kill control)
How it was run: (§1)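 Each value is the plate-normalised signal at one concentration of the series. Breast cancer cell lines (20 µl suspension) were incubated 72 h in 384-well plates with compound at 5 concentrations in 10-fold steps over a compound-specific 10,000-fold range. CellTox Green and then CellTiter-Glo were read, and each plate was scaled to 0.1 % DMSO (100) and a positive kill control (0).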

HCC1599 [2] = test: as above
How it was run: as §1

MDA-MB-468 [3] = test: as above
How it was run: as §1

MDA-MB-231 [4] = test: as above
How it was run: as §1

CAL-148 [5] = test: as above
How it was run: as §1

SK-BR-3 = test: as above
How it was run: as §1

BT-474 [6] = test: as above
How it was run: as §1

MDA-MB-436 [7] = test: as above
How it was run: as §1

MDA-MB-453 [8] = test: as above
How it was run: as §1

BT-549 [9] = test: as above
How it was run: as §1

HCC1937 [10] = test: as above
How it was run: as §1

CAL-120 [11] = test: as above
How it was run: as §1

MCF-10A [12] = test: as above
How it was run: as §1

Hs578T [13] = test: as above
How it was run: as §1

CAL-85-1 [14] = test: as above
How it was run: as §1

MFM-223 [15] = test: as above
How it was run: as §1

HCC1143 [16] = test: as above
How it was run: as §1

HDQ-P1 [17] = test: as above
How it was run: as §1

CAL-51 [18] = test: as above
How it was run: as §1

DU-4475 [19] = test: normalised response (% of control), CellTox Green; higher = less cell death (100 = DMSO, 0 = benzethonium chloride kill control)
How it was run: as §1

HCC1599 [20] = test: as above
How it was run: as §1

MDA-MB-468 [21] = test: as above
How it was run: as §1

MDA-MB-231 [22] = test: as above
How it was run: as §1

CAL-148 [23] = test: as above
How it was run: as §1

BT-474 [24] = test: as above
How it was run: as §1

MDA-MB-436 [25] = test: as above
How it was run: as §1

MDA-MB-453 [26] = test: as above
How it was run: as §1

BT-549 [27] = test: as above
How it was run: as §1

HCC1937 [28] = test: as above
How it was run: as §1

CAL-120 [29] = test: as above
How it was run: as §1

MCF-10A [30] = test: as above
How it was run: as §1

Hs578T [31] = test: as above
How it was run: as §1

CAL-85-1 [32] = test: as above
How it was run: as §1

MFM-223 [33] = test: as above
How it was run: as §1

HCC1143 [34] = test: as above
How it was run: as §1

HDQ-P1 [35] = test: as above
How it was run: as §1

CAL-51 [36] = test: as above
How it was run: as §1

Compound | normalised response (DU-4475 [1]) | normalised response (HCC1599 [2]) | normalised response (MDA-MB-468 [3]) | normalised response (MDA-MB-231 [4]) | normalised response (CAL-148 [5]) | normalised response (SK-BR-3) | normalised response (BT-474 [6]) | normalised response (MDA-MB-436 [7]) | normalised response (MDA-MB-453 [8]) | normalised response (BT-549 [9]) | normalised response (HCC1937 [10]) | normalised response (CAL-120 [11]) | normalised response (MCF-10A [12]) | normalised response (Hs578T [13]) | normalised response (CAL-85-1 [14]) | normalised response (MFM-223 [15]) | normalised response (HCC1143 [16]) | normalised response (HDQ-P1 [17]) | normalised response (CAL-51 [18]) | normalised response (DU-4475 [19]) | normalised response (HCC1599 [20]) | normalised response (MDA-MB-468 [21]) | normalised response (MDA-MB-231 [22]) | normalised response (CAL-148 [23]) | normalised response (BT-474 [24]) | normalised response (MDA-MB-436 [25]) | normalised response (MDA-MB-453 [26]) | normalised response (BT-549 [27]) | normalised response (HCC1937 [28]) | normalised response (CAL-120 [29]) | normalised response (MCF-10A [30]) | normalised response (Hs578T [31]) | normalised response (CAL-85-1 [32]) | normalised response (MFM-223 [33]) | normalised response (HCC1143 [34]) | normalised response (HDQ-P1 [35]) | normalised response (CAL-51 [36])
COc1ccc(-c2ccc3c(N4CCOC[C@@H]4C)nc(N4CCOC[C@@H]4C)nc3n2)cc1CO [AZD8055] (1000 nM) | 23.2% | 67.2% | 23.6% | 36.5% | 13.9% | 20.3% | 46.6% | 45.8% | 31.3% | 21.5% | 45.7% | 18% | 27.8% | 29.4% | 25.3% | 27.6% | 24.2% | 32.3% | 20.3% | 83.3% | 94.2% | 118% | 87.4% | 39.6% | 86.1% | 92.4% | 104% | 116% | 56.8% | 96% | 91.7% | 102% | 87.8% | 93.6% | 74.1% | 103% | 80.1%
C/C(=C\c1csc(C)n1)[C@@H]1C[C@@H]2O[C@]2(C)CCC[C@H](C)[C@H](O)[C@@H](C)C(=O)C(C)(C)[C@@H](O)CC(=O)O1 [Patupilone] (100 nM) | 72.4% | 102% | 26.2% | 73% | 37.4% | 17.4% | 75.1% | 35.4% | 71.8% | 16.3% | 75.9% | 71.4% | 61.4% | 39.6% | 25.8% | 86.8% | 42.8% | 74.6% | 24.4% | 94.5% | 95.6% | -2.53% | 65.7% | 50.5% | 58.5% | 40.1% | 93.6% | 90.3% | 81.2% | 77.9% | 77.1% | 96.1% | 38.6% | 84.1% | 103% | 71.9% | 36.3%
CN1CCN(CCOc2cc(OC3CCOCC3)c3c(Nc4c(Cl)ccc5c4OCO5)ncnc3c2)CC1 [Saracatinib] (1000 nM) | 94% | 119% | 79.2% | 64.6% | 84.1% | 92.7% | 71.1% | 93.9% | 88.2% | 89.9% | 83.3% | 81.9% | 41.5% | 96.1% | 61.7% | 89.7% | 74.6% | 53.2% | 74.3% | 98.9% | 96% | 181% | 77.6% | 99.3% | 96.4% | 77.6% | 101% | 93% | 86.5% | 96.6% | 106% | 83.4% | 68.5% | 93.9% | 76.8% | 86.8% | 68.5%
CC(C)c1c(C(=O)Nc2ccccc2)c(-c2ccccc2)c(-c2ccc(F)cc2)n1CC[C@@H](O)C[C@@H](O)CC(=O)O [Atorvastatin] (1000 nM) | 99.9% | 95.6% | 93.2% | 59.1% | 105% | 102% | 66.1% | 92.6% | 99.4% | 95.6% | 96.6% | 90.5% | 84% | 101% | 91.9% | 99.1% | 93.4% | 74.8% | 90.2% | 101% | 100% | 87.3% | 34% | 103% | 99.9% | 96.6% | 94.1% | 97.4% | 88.3% | 98.2% | 83.6% | 97.4% | 110% | 89.4% | 114% | 103% | –
